Results on one molecule are retold here after paper PMC10680097 (Biochemistry, 2023).

Test [1] deals with T1, C3/C5-epimerase (HS:42) (Campylobacter jejuni, UniProt F2X7E5).
T1 construct: gene HS42.11
The test can be described thus: coupled turnover of purified […] to […], D2O exchange at C3 and C5, ESI-MS. It is filed as biochemical. The note with it: 5.0 mM NADPH and HS:42 C4-reductase, pH 8.0, 40 h.

Test [2] has as its system C4-reductase (HS:51/HS:53). The test can be described thus: NADPH oxidation at […] nm. It is filed as biochemical, Campylobacter jejuni. The note with it: apparent; 300 μM NADPH, 50 mM HEPES pH 7.5, 30 °C; substrate made with Cj1427.

T1 sequence (F2X7E5 entry or part of it): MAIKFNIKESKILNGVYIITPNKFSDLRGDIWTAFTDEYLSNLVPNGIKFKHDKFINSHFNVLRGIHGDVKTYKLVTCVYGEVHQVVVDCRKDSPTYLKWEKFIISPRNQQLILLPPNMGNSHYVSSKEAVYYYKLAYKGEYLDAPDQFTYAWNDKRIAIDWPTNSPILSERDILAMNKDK

For orientation: Km means the substrate concentration at which the rate is half of its maximum. Consider `Nc1nc2c(ncn2[C@@H]2O[C@H](COP(=O)(O)OP(=O)(O)O[C@H]3O[C@H]([C@H](O)CO)C(=O)[C@H](O)[C@@H]3O)[C@@H](O)[C@H]2O)c(=O)[nH]1` [compound 22, GDP-D-glycero-4-keto-α-D-lyxo-heptose], for which the “coupled turnover of purified 22 to 30, D2O exchange at C3 and C5, ESI-MS” value in test [1] is reported as “Epimerases from the same serotype of each C4-reductase were used for each reaction”. Moreover, the Km in test [2] is 53 ± 6 µM.
